Assay [1] deals with anti-Fy^a monoclonal antibody (LM487). The experiment in a line: Phage ELISA (capture ELISA) of phage-peptides on coated anti-Fy^a antibody. Type of assay: binding, Murine. The following applies: FIG. 3; 19 Fya phage-peptide clones (Fya1-18 & Fya25); OD450 greater than 0.1 considered positive. As to the method: The ability of the recovered phage-peptides to react with the antibodies used in their selection was confirmed by capture ELISA. A 10 μg/ml stock of appropriate monoclonal antibody was prepared in ELISA coating buffer and 150 μl aliquots were added to wells of an Immulon 4 ELISA plate, and then incubated overnight at 4° C. Unbound antibody was discarded and the wells were blocked with 350 μl of blocking buffer (0.1M NaHCO3/3% skimmed milk powder) for 1 hour at 4° C. The wells were washed three times with 300 μl TBS/0.5% Tween 20 and 100 μl of selected phage culture supernatants were added to appropriate wells for 1 hour at room temperature. Unbound phage were removed and the wells washed six times with 300 μl TBS/0.5% Tween 20. A 1:5000 dilution of horseradish peroxidase (HRP) conjugated anti-M13, secondary antibody was prepared in blocking buffer and 100 μl aliquots added to each well. Following incubation for 1 hour at room temperature the wells were washed six times with 300 μl TBS/0.5% Tween 20. To develop the reactions, a 200 μl aliquot of o-phenylenediamine dihydrochloride (OPD) substrate (Sigma) was added to each well. The absorbance at 450 nm was measured, following incubation at room temperature for 1 hour, by a microplate ELISA reader. An OD450 signal greater than 0.1 was considered positive.
Phage ELISA analysis of 19 “Fy^a” phage-peptide clones (Peptides Fya1-18 & Fya25; see Table 3 for sequence details) confirmed the binding specificity of the LM487 antibody for the Fy^a phage-peptides.
Background: ELISA stands for enzyme-linked immunosorbent assay.

For assay [2] the test system is unchanged. The experiment in a line: SPOTs membrane hybridisation with anti-Fy^a antibody. Type of assay: binding, Murine. As to the method:
(§1) The peptide mimotopes were synthesised by the SPOT method (Frank; 1992) using F-moc chemistry. The peptides were anchored to an amino-PEG derivatised cellulose membrane (Intavis AG) and synthesised as discrete spots. Synthesis was by stepwise elongation of the peptide chain from C-terminus to the N-terminus, by manual pipetting of the respective amino acids, according to the Sigma Genosys protocol. Incubation times were modified when using Intavis AG membranes. After addition of the final amino acid, the terminal residues and side chains of the peptides were deprotected and the membrane was washed with methanol; air dried and then stored at −20° C. prior to use.
A membrane was placed in a 50 ml Falcon tube and blocked overnight at 4° C. with gentle agitation in TBS/0.25% Tween 20/5% skimmed milk powder. A 2 μg/ml dilution of the primary (1°) antibody (monoclonal or polyclonal) was prepared in TBS/0.25% Tween20/5% skimmed milk powder before incubation with the membrane for 1 hour at room temperature on a spiral rotor. Following 4 washes, each for 5 minutes with 20 ml of TBS/0.25% Tween20, the membrane was incubated for 1 hour at room temperature with a 1/5000 dilution of the secondary (2°) antibody, prepared in TBS/0.25% Tween20/5% skimmed milk powder. […] Bound antibody was detected by chemiluminescence. […]

For assay [3] the test system is unchanged. Nature of the assay: Biopanning of phage-peptide libraries with anti-Fy^a LM487. Type of assay: binding, Murine. The following applies: three rounds of panning. The source says:
(§2) Three different phage libraries from New England Biolabs. (Ph.D. 7 and Ph.D. 12 displaying linear 7- and 12-mer peptides, respectively and Ph.D. C7C displaying 7-mer peptides constrained by a disulphide bridge at their termini) and a linear 15mer library (kindly provided by Prof. George P. Smith, University of Missouri) were used in biopanning experiments with 10 different monoclonal antibodies and a polyclonal preparation (Table 1).
(§3) For each target antibody/library combination, a separate well of a 96-well Immulon 4 flat-bottomed ELISA plate (Thermo Labsystems) was coated with 5 μg of antibody in 150 μl ELISA coating buffer (15 mM Na2CO3, 35 mM NaHCO3, pH9.6). Plates were sealed and incubated at 4° C. overnight. Unbound antibody was discarded and 350 μl of blocking buffer (0.1M NaHCO3/3% skimmed milk powder) was added to each well. Plates were sealed and incubated for 1 hour at 4° C. The blocking buffer was removed and the wells were washed six times with 300 μl TBS/0.1% Tween 20. Approximately 2×10^11 plaque forming units (pfu) in 100 μl TBS/0.1% Tween 20 were added to each well and the plates were incubated at room temperature for 1 hour. Wells were washed ten times with 300 μl TBS/0.1% Tween 20. […] The specificity of peptide-antibody binding was subsequently determined using both phage ELISA and SPOTs techniques.

Assay [4] relates to polyclonal anti-RhD preparation (Human Anti-D Ig). The experiment in a line: SPOTs membrane hybridisation with polyclonal anti-RhD. Type of assay: binding. The settings on record: FIG. 8; Spots 1-25 = RhD81-105; Spots 26-28 = RhD68, RhD71, RhD79; Spot 29 CPep75 and Spot 30 CPep76 negative controls. As to the method: as §1
A membrane was placed in a 50 ml Falcon tube and blocked overnight at 4° C. with gentle agitation in TBS/0.25% Tween 20/5% skimmed milk powder. A 2 μg/ml dilution of the primary (1°) antibody (monoclonal or polyclonal) was prepared in TBS/0.25% Tween20/5% skimmed milk powder before incubation with the membrane for 1 hour at room temperature on a spiral rotor. Following 4 washes, each for 5 minutes with 20 ml of TBS/0.25% Tween20, the membrane was incubated for 1 hour at room temperature with a 1/5000 dilution of the secondary (2°) antibody, prepared in TBS/0.25% Tween20/5% skimmed milk powder. Peroxidase labelled rabbit anti-mouse IgG (Sigma) was used for the detection of the murine anti-Fy^a (LM487) and anti-Fy^b (LM447) 1° antibodies and peroxidase labelled goat anti-human IgG (Pharmacia) for the detection of the human 1° antibodies. Following 4 washes, each for 5 minutes with 20 ml of TBS/0.25% Tween20, the membrane was blotted to remove excess fluid. Bound antibody was detected by chemiluminescence. ECL detection reagents (Amersham Biosciences) were mixed and overlaid on the membrane for 2 minutes. The chemiluminescent substrate was removed and the membrane blotted to remove excess fluid. Positive spots were visualised following exposure to Hyperfilm ECL (Amersham Biosciences) for a series of short incubation times (5 seconds to 10 minutes). […]

For assay [5], the system named is anti-RhD monoclonal antibody T10 (LHM76/55). Nature of the assay: Biopanning of phage-peptide libraries with anti-RhD T10. It counts as binding, Human. The following applies: phage-peptide libraries; three rounds of panning.
From the text: as §2
(§4) For each target antibody/library combination, a separate well of a 96-well Immulon 4 flat-bottomed ELISA plate (Thermo Labsystems) was coated with 5 μg of antibody in 150 μl ELISA coating buffer (15 mM Na2CO3, 35 mM NaHCO3, pH9.6). Plates were sealed and incubated at 4° C. overnight. Unbound antibody was discarded and 350 μl of blocking buffer (0.1M NaHCO3/3% skimmed milk powder) was added to each well. Plates were sealed and incubated for 1 hour at 4° C. The blocking buffer was removed and the wells were washed six times with 300 μl TBS/0.1% Tween 20. Approximately 2×10^11 plaque forming units (pfu) in 100 μl TBS/0.1% Tween 20 were added to each well and the plates were incubated at room temperature for 1 hour. Wells were washed ten times with 300 μl TBS/0.1% Tween 20. Bound phage were eluted by incubation with 100 μl of 0.2M glycine-HCl/BSA, pH2.2 (1 mg/ml) for 10 minutes, then neutralised with 15 μl of 1M Tris-HCL (pH9.1). An aliquot of the Round 1 eluate was removed and titred. The remainder of the eluted phage were amplified by infection of E. coli ER2538 cells for 4.5 hours at 37° C. The cultures were centrifuged for 10 minutes at 10,000 rpm at 4° C. The supernatants were recovered, ⅙ volume PEG/NaCl (20% polyethylene glycol 8000; 2.5M NaCl) added, then incubated overnight at 4° C. The PEG-precipitated phage were centrifuged at 10,000 rpm for 15 minutes at 4° C. The supernatant was removed and the phage pellet resuspended in 200 μl TBS. Two further rounds of panning were undertaken and approximately 2×10^11 pfu of the Round 2 or Round 3 amplified eluates were used as input phage. Round 3 eluates were titrated but not amplified. Individual plaques were amplified and subjected to PCR amplification, prior to DNA sequence analysis. The specificity of peptide-antibody binding was subsequently determined using both phage ELISA and SPOTs techniques.

Assay [6] deals with anti-RhE monoclonal antibody E0002 (NaTH110-1D6). Nature of the assay: Biopanning of phage-peptide libraries with anti-RhE E0002. It counts as binding, Human. The following applies: IgM antibody.
From the text: as §2
as §4, with “Two further rounds of panning were undertaken and approximately 2×10^11 pfu of the Round 2 or Round 3 amplified eluates were used as input phage. Round 3 eluates were titrated but not amplified. Individual plaques were amplified and subjected to PCR amplification, prior to DNA sequence analysis.” left out

The test system of assay [7] is anti-RhE monoclonal antibody E0002. The experiment in a line: SPOTs membrane hybridisation with anti-RhE monoclonal E0002. Type of assay: binding, Human. The following applies: FIG. 9; 36 RhE peptide mimotopes; CPep75 (Spot 37), CPep76 (Spot 38) negative controls. As to the method: as §1
A membrane was placed in a 50 ml Falcon tube and blocked overnight at 4° C. with gentle agitation in TBS/0.25% Tween 20/5% skimmed milk powder. A 2 μg/ml dilution of the primary (1°) antibody (monoclonal or polyclonal) was prepared in TBS/0.25% Tween20/5% skimmed milk powder before incubation with the membrane for 1 hour at room temperature on a spiral rotor. Following 4 washes, each for 5 minutes with 20 ml of TBS/0.25% Tween20, the membrane was incubated for 1 hour at room temperature with a 1/5000 dilution of the secondary (2°) antibody, prepared in TBS/0.25% Tween20/5% skimmed milk powder. Peroxidase labelled rabbit anti-mouse IgG (Sigma) was used for the detection of the murine anti-Fy^a (LM487) and anti-Fy^b (LM447) 1° antibodies and peroxidase labelled goat anti-human IgG (Pharmacia) for the detection of the human 1° antibodies. Following 4 washes, each for 5 minutes with 20 ml of TBS/0.25% Tween20, the membrane was blotted to remove excess fluid. Bound antibody was detected by chemiluminescence. ECL detection reagents (Amersham Biosciences) were mixed and overlaid on the membrane for 2 minutes. The chemiluminescent substrate was removed and the membrane blotted to remove excess fluid. Positive spots were visualised following exposure to Hyperfilm ECL (Amersham Biosciences) for a series of short incubation times (5 seconds to 10 minutes).
The RhD, RhE and Rhe peptide mimotopes (see Tables 4 & 5) were synthesised by SPOTs and hybridisation of the membranes was undertaken with the appropriate antibodies (Table 1). FIGS. 7-10 show examples of peptide mimotopes reacting specifically with the antibody originally used in their selection.

Assay [8] concerns anti-RhE monoclonal antibody E0003 (NaTH110-IH4). Nature of the assay: Biopanning of phage-peptide libraries with anti-RhE E0003. Type of assay: binding, Human. The following applies: IgM antibody.
From the text: as §2, §3

Assay [9] has as its system anti-RhE monoclonal antibody E0001 (HIRO17). The experiment in a line: Biopanning of phage-peptide libraries with anti-RhE E0001. Type of assay: binding, Human. The following applies: IgG1 antibody.
From the text: as §2, §3

Here are results for twelve substances from patent US20100216661A1, “Diagnostic Assay” (priority 2007, published 2010).

Turning to “Fya2: Fya peptide mimotope, Table 3 (TNLRLPA)”, the “Phage ELISA binding of phage-peptide to anti-Fy^a antibody LM487” value (“Phage ELISA binding of phage-peptide” below) in assay [1] is listed as “failed to bind”.

As for “Fya14: Fya peptide mimotope, Table 3 (GDWLHW)”, in assay [1], the “Phage ELISA binding of phage-peptide” value is on record as “failed to bind”.

Regarding “Fya15: Fya peptide mimotope, Table 3; contains sequence identical to the Fy^a polymorphism (SDGDYGA)”, the “SPOTs binding of anti-Fy^a antibody LM487 to membrane-synthesised peptide” value in [2] (FIG. 4, 37 peptides Fya1-37 synthesised as SPOTs) is “strong positive signal”. In assay [3], the “Selection by biopanning with anti-Fy^a monoclonal antibody LM487” value is “bound”.

“Fya18: Fya peptide mimotope, Table 3 (PSPGQI)”: the “Phage ELISA binding of phage-peptide” value in [1] was “failed to bind”.

On to “Fya20: Fya peptide mimotope, Table 3; contains sequence identical to the Fy^a polymorphism (GIAEDDYGALSW)”, for which, in assay [3], the “Selection by biopanning with anti-Fy^a monoclonal antibody LM487” value is “bound”.

Consider “PDGDYGANLEAAAP [CPep118, 14-mer immunisation peptide used to generate the anti-Fy^a antibody, reference compound]”, for which the “Reciprocal SPOTs hybridisation: binding of anti-Fy^a monoclonal antibody” value in assay [2] (FIG. 5, Spots 1-37 = Fya 1-37, Spots 38-40 = Fya17, Fya25, Fya35, Spot 41 Cpep75, 42 Cpep76, 43 CPep118, 44 Fyb1, membranes hybridised in parallel with both antibodies) is “Fy^a-specificity”.

“RhD68: RhD peptide mimotope, Table 4 (LDTYWYREHFRR)”: the “SPOTs recognition by polyclonal anti-RhD” value in assay [4] is reported as “recognised”. For the same substance, the “Selection by biopanning with anti-RhD monoclonal antibody T10” value in [5] is reported as “identified through biopanning”.

With “RhD71: RhD peptide mimotope, Table 4 (VPWFRAP)”, in assay [4], the “SPOTs recognition by polyclonal anti-RhD” value is “recognised”. The “Selection by biopanning with anti-RhD monoclonal antibody T10” value in assay [5] is recorded as “identified through biopanning”.

In the case of “RhD79: RhD peptide mimotope, Table 4 (LPWYRH)”, the “SPOTs recognition by polyclonal anti-RhD” value in assay [4] is given as “recognised”. For the same substance, in [5], the “Selection by biopanning with anti-RhD monoclonal antibody T10” value is listed as “identified through biopanning”.

“RhE18: RhE peptide mimotope, Table 5 (IPEEALRARFKT)”: in assay [6], the “Selection by biopanning with anti-RhE antibody E0002” value is on record as “selected”. Besides, the “SPOTs binding of anti-RhE monoclonal antibody E0002” value in assay [7] is “Specific binding”. For the same substance, the “Selection by biopanning with anti-RhE antibody E0003” value in assay [8] is “selected”.

With “RhE19: RhE peptide mimotope, Table 5 (SFQDALLSRWYS)”, the “Selection by biopanning with anti-RhE antibody E0001” value in assay [9] is listed as “selected”. Also, the “Selection by biopanning with anti-RhE antibody E0002” value in [6] is “selected”. In addition, in [7], the “SPOTs binding of anti-RhE monoclonal antibody E0002” value is listed as “Specific binding”.

For “RhE24: RhE peptide mimotope, Table 5 (GPSYYALITRYLGAA)”, in [6], the “Selection by biopanning with anti-RhE antibody E0002” value was “selected”. The “SPOTs binding of anti-RhE monoclonal antibody E0002” value in assay [7] was “Specific binding”. Also, in [8], the “Selection by biopanning with anti-RhE antibody E0003” value was “selected”.
